This passage reports Ki results from BindingDB's records for doi:10.7270/Q2Z31X1B (Nmmlsc, 2007).

For orientation: Ki means a dissociation constant, usually derived from enzyme kinetics or from competition with a known ligand.

The target in the test is T1, fMet-Leu-Phe receptor (Homo sapiens, UniProt P21462).
T1 sequence (P21462 whole entry): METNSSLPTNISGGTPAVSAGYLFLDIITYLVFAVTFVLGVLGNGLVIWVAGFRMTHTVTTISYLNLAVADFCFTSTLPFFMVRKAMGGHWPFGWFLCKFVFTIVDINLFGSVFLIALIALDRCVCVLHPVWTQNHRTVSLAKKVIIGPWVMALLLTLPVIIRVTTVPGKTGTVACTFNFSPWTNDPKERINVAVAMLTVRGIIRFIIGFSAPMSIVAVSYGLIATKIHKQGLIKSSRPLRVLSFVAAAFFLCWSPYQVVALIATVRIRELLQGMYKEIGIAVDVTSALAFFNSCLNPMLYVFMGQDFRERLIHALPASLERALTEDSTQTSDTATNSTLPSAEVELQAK
Description: FPR1 fluorescent ligand binding inhibitors, dose response, cell-based, flow cytometry, Ki from IC50 (AID 724). (In flow cytometry, cells or beads pass a laser one at a time.)

As to `CC(=O)C1C(=O)C(=O)N(CCc2c(C)[nH]c3ccccc23)C1c1cccc(F)c1` (centres undefined), the affinity corresponds to a Ki of 11.2 µM.
Then `COc1ccc(C(=O)C2C(=O)C(=O)N(CCc3c[nH]c4ccccc34)C2c2ccc(C(C)C)cc2)cc1` (centres undefined), with above 44.3 µM.
The figure for `COc1ccc(C2C(C(=O)c3cccs3)C(=O)C(=O)N2CCCn2ccnc2)cc1` (centres undefined) [1-(3-imidazol-1-ylpropyl)-2-(4-methoxyphenyl)-4-oxidanyl-3-thiophen-2-ylcarbonyl-2H-pyrrol-5-one] is 4.7 µM.
With `COc1cc(C2C(C(C)=O)C(=O)C(=O)N2c2ccc(Br)cc2)ccc1O` (centres undefined) [1-(4-bromophenyl)-3-ethanoyl-2-(3-methoxy-4-oxidanyl-phenyl)-4-oxidanyl-2H-pyrrol-5-one], the inhibition constant (Ki) is above 44.3 µM.
Then `COc1ccc(C2C(C(=O)c3cccs3)C(=O)C(=O)N2CCN2CCOCC2)c(OC)c1` (centres undefined) [2-(2,4-dimethoxyphenyl)-1-(2-morpholin-4-ylethyl)-4-oxidanyl-3-thiophen-2-ylcarbonyl-2H-pyrrol-5-one], with 2.9 µM.
Then `COc1ccc(C2C(C(=O)c3ccco3)C(=O)C(=O)N2CCCN2CCOCC2)cc1OC` (centres undefined) [2-(3,4-dimethoxyphenyl)-3-(furan-2-carbonyl)-4-hydroxy-1-(3-morpholin-4-ylpropyl)-2H-pyrrol-5-one], with above 44.3 µM; and `O=C1C(=O)N(CCc2ccccc2)C(c2ccc(Cl)cc2)C1C(=O)c1cccs1` (centres undefined) [2-(4-chlorophenyl)-4-hydroxy-1-(2-phenylethyl)-3-(thiophene-2-carbonyl)-2H-pyrrol-5-one], with 6.9 µM; and `COc1cc(C2C(C(=O)c3cc4ccccc4o3)C(=O)C(=O)N2CCN(C)C)ccc1O` (centres undefined) [3-(1-benzofuran-2-carbonyl)-1-[2-(dimethylamino)ethyl]-4-hydroxy-2-(4-hydroxy-3-methoxyphenyl)-2H-pyrrol-5-one], with above 44.3 µM.
`COc1ccc(C2C(C(=O)c3cc4ccccc4o3)C(=O)C(=O)N2CCN(C)C)cc1OC` (centres undefined) [3-(1-benzofuran-2-carbonyl)-2-(3,4-dimethoxyphenyl)-1-[2-(dimethylamino)ethyl]-4-hydroxy-2H-pyrrol-5-one] yielded a Ki above 44.3 µM.
Turning to `O=C1C(=O)N(CCCn2ccnc2)C(c2cccnc2)C1C(=O)c1cc2ccccc2o1` (centres undefined) [3-(1-benzofuran-2-carbonyl)-4-hydroxy-1-(3-imidazol-1-ylpropyl)-2-pyridin-3-yl-2H-pyrrol-5-one], the Ki was above 44.3 µM.
The compound `O=C1C(=O)N(CCCN2CCOCC2)C(c2cccnc2)C1C(=O)c1cc2ccccc2o1` (centres undefined) [3-(1-benzofuran-2-carbonyl)-4-hydroxy-1-(3-morpholin-4-ylpropyl)-2-pyridin-3-yl-2H-pyrrol-5-one] registered a Ki above 44.3 µM.
The figure for `O=C1C(=O)N(CCCn2ccnc2)C(c2cccnc2)C1C(=O)c1ccco1` (centres undefined) [3-(furan-2-carbonyl)-4-hydroxy-1-(3-imidazol-1-ylpropyl)-2-pyridin-3-yl-2H-pyrrol-5-one] is above 44.3 µM.
Then `COc1ccc(OC)c(C2C(C(=O)c3ccc(C)cc3)C(=O)C(=O)N2CCC(=O)O)c1` (centres undefined) [3-[(3E)-2-(2,5-dimethoxyphenyl)-3-[(4-methylphenyl)-oxidanyl-methylidene]-4,5-bis(oxidanylidene)pyrrolidin-1-yl]propanoic acid], with above 44.3 µM; and `O=C(O)CCCN1C(=O)C(=O)C(C(=O)c2ccccc2)C1/C=C/c1ccccc1` (centres undefined) [4-[(4E)-2,3-bis(oxidanylidene)-4-[oxidanyl(phenyl)methylidene]-5-[(E)-2-phenylethenyl]pyrrolidin-1-yl]butanoic acid], with above 44.3 µM.
`COc1ccc(C2C(C(=O)c3ccco3)C(=O)C(=O)N2CCN2CCOCC2)c(OC)c1` (centres undefined) [5-(2,4-dimethoxyphenyl)-4-(furan-2-carbonyl)-3-hydroxy-1-(2-morpholinoethyl)-1H-pyrrol-2(5H)-one]: the affinity, expressed as Ki, was 6.4 µM. This counts as single-digit micromolar.
Then `COc1ccc(OC)c(C2C(C(=O)c3ccccc3)C(=O)C(=O)N2c2ccc(C)c(Cl)c2)c1` (centres undefined) [(4E)-1-(3-chloranyl-4-methyl-phenyl)-5-(2,5-dimethoxyphenyl)-4-[oxidanyl(phenyl)methylidene]pyrrolidine-2,3-dione], with 16.8 µM.
Then `COc1ccc(C2C(C(=O)c3ccccc3)C(=O)C(=O)N2c2cccc(Cl)c2)c(OC)c1` (centres undefined) [(4E)-1-(3-chlorophenyl)-5-(2,4-dimethoxyphenyl)-4-[hydroxy(phenyl)methylene]pyrrolidine-2,3-quinone], with 31.1 µM.
Then `COCCCN1C(=O)C(=O)C(C(=O)c2ccccc2)C1c1ccc(C(C)C)cc1` (centres undefined) [(4E)-1-(3-methoxypropyl)-4-[oxidanyl(phenyl)methylidene]-5-(4-propan-2-ylphenyl)pyrrolidine-2,3-dione], with 20.3 µM.
Compound `Cc1ccc(C(=O)C2C(=O)C(=O)N(c3nnc(C)s3)C2c2ccc(C(C)C)cc2)cc1` (centres undefined) [(4E)-4-[(4-methylphenyl)-oxidanyl-methylidene]-1-(5-methyl-1,3,4-thiadiazol-2-yl)-5-(4-propan-2-ylphenyl)pyrrolidine-2,3-dione] yielded a Ki above 44.3 µM.
Then `CC(C)c1ccc(C2C(C(=O)c3ccccc3)C(=O)C(=O)N2Cc2cccnc2)cc1` (centres undefined) [(4E)-4-[hydroxy(phenyl)methylene]-5-p-cumenyl-1-(3-pyridylmethyl)pyrrolidine-2,3-quinone], with 33.2 µM; and `COc1ccc(C2C(C(=O)c3ccccc3)C(=O)C(=O)N2CCCn2ccnc2)c(OC)c1` (centres undefined) [(4E)-5-(2,4-dimethoxyphenyl)-1-(3-imidazol-1-ylpropyl)-4-[oxidanyl(phenyl)methylidene]pyrrolidine-2,3-dione], with 3.4 µM.
The figure for `COc1ccc(C2C(C(=O)c3ccc(C)cc3)C(=O)C(=O)N2Cc2cccnc2)c(OC)c1` (centres undefined) [(4E)-5-(2,4-dimethoxyphenyl)-4-[(4-methylphenyl)-oxidanyl-methylidene]-1-(pyridin-3-ylmethyl)pyrrolidine-2,3-dione] is 39.1 µM; for `COCCN1C(=O)C(=O)C(C(=O)c2ccccc2)C1c1cc(OC)ccc1OC` (centres undefined) [(4E)-5-(2,5-dimethoxyphenyl)-1-(2-methoxyethyl)-4-[oxidanyl(phenyl)methylidene]pyrrolidine-2,3-dione] it is 1.8 µM; for `COc1ccc(OC)c(C2C(C(=O)c3ccccc3)C(=O)C(=O)N2c2cccnc2)c1` (centres undefined) [(4E)-5-(2,5-dimethoxyphenyl)-4-[hydroxy(phenyl)methylene]-1-(3-pyridyl)pyrrolidine-2,3-quinone] it is 6 µM.
`COCCCN1C(=O)C(=O)C(C(=O)c2ccccc2)C1c1ccc(O)c(OC)c1` (centres undefined) [(4E)-5-(3-methoxy-4-oxidanyl-phenyl)-1-(3-methoxypropyl)-4-[oxidanyl(phenyl)methylidene]pyrrolidine-2,3-dione] yielded an inhibition constant (Ki) of 33 µM.
`O=C1C(=O)N(CN2CCOCC2)C(c2ccc(Br)cc2)C1C(=O)c1ccccc1` (centres undefined) [(4E)-5-(4-bromophenyl)-1-(morpholin-4-ylmethyl)-4-[oxidanyl(phenyl)methylidene]pyrrolidine-2,3-dione] came in with a Ki above 44.3 µM.
Then `O=C1NC(c2ccc(Br)cc2)C(C(=O)c2ccc(Cl)cc2)C1=O` (centres undefined) [(4E)-5-(4-bromophenyl)-4-[(4-chlorophenyl)-hydroxy-methylene]pyrrolidine-2,3-quinone], with above 44.3 µM; and `Cc1ccc(C(=O)C2C(=O)C(=O)N(Cc3cccnc3)C2c2ccc(Br)cc2)cc1` (centres undefined) [(4E)-5-(4-bromophenyl)-4-[(4-methylphenyl)-oxidanyl-methylidene]-1-(pyridin-3-ylmethyl)pyrrolidine-2,3-dione], with above 44.3 µM.
Turning to `Cc1ccc(N2C(=O)C(=O)C(C(=O)c3ccccc3)C2c2cccc(F)c2)cc1Br` (centres undefined) [(4Z)-1-(3-bromanyl-4-methyl-phenyl)-5-(3-fluorophenyl)-4-[oxidanyl(phenyl)methylidene]pyrrolidine-2,3-dione], the Ki is above 44.3 µM.
The compound `CCCCCCN1C(=O)C(=O)C(C(=O)c2ccccc2)C1c1ccc(O)c(OC)c1` (centres undefined) [(4Z)-1-hexyl-5-(3-methoxy-4-oxidanyl-phenyl)-4-[oxidanyl(phenyl)methylidene]pyrrolidine-2,3-dione] came in with an inhibition constant Ki of 4.7 µM.
The figure for `COc1ccc(C(=O)C2C(=O)C(=O)NC2c2ccc(OC)cc2OC)cc1` (centres undefined) [(4Z)-5-(2,4-dimethoxyphenyl)-4-[(4-methoxyphenyl)-oxidanyl-methylidene]pyrrolidine-2,3-dione] is above 44.3 µM.
Turning to `CCCCCCOc1cccc(N2C(=O)C(=O)C(C(=O)c3ccccc3)C2c2cccc(F)c2)c1` (centres undefined) [(4Z)-5-(3-fluorophenyl)-1-(3-hexoxyphenyl)-4-[hydroxy(phenyl)methylene]pyrrolidine-2,3-quinone], the Ki is above 44.3 µM.
`O=C1C(=O)N(c2ccc(F)cc2)C(c2ccc(Br)cc2)C1C(=O)c1ccccc1` (centres undefined) [(4Z)-5-(4-bromophenyl)-1-(4-fluorophenyl)-4-[hydroxy(phenyl)methylene]pyrrolidine-2,3-quinone] came in with a Ki above 44.3 µM.
Then `N#Cc1c(N=C(CC(=O)c2ccccc2)C(=O)O)sc2c1CCC2` [(Z)-2-[(3-cyano-5,6-dihydro-4H-cyclopenta[b]thiophen-2-yl)amino]-4-keto-4-phenyl-but-2-enoic acid], with above 44.3 µM.
